Experimental data from patent US8748621B2, “1,3-disubstituted 4-(aryl-X-phenyl)-1H-pyridin-2-ones” (Janssen Pharmaceuticals, Inc., priority 2007, dated 2014).

Tests used:
human mGluR2 receptor = target: T1, human mGluR2 receptor (Homo sapiens, UniProt Q14416); assay: [35S]GTPγS binding assay (GTPγS-PAM), membranes from CHO cells transfected with human mGluR2, glutamate at EC25; assay type: biochemical; conditions: positive allosteric modulation in presence of glutamate at EC25 concentration; averages of duplicate values of 11-concentration response curves; error about 0.3 log-units; read-out: GTPgS - hR2 PAM pEC50 (converted)
T1 construct: expressed in transfected cells; host or cells: CHO cells (membrane preparation)
T1 sequence (Q14416 19-872): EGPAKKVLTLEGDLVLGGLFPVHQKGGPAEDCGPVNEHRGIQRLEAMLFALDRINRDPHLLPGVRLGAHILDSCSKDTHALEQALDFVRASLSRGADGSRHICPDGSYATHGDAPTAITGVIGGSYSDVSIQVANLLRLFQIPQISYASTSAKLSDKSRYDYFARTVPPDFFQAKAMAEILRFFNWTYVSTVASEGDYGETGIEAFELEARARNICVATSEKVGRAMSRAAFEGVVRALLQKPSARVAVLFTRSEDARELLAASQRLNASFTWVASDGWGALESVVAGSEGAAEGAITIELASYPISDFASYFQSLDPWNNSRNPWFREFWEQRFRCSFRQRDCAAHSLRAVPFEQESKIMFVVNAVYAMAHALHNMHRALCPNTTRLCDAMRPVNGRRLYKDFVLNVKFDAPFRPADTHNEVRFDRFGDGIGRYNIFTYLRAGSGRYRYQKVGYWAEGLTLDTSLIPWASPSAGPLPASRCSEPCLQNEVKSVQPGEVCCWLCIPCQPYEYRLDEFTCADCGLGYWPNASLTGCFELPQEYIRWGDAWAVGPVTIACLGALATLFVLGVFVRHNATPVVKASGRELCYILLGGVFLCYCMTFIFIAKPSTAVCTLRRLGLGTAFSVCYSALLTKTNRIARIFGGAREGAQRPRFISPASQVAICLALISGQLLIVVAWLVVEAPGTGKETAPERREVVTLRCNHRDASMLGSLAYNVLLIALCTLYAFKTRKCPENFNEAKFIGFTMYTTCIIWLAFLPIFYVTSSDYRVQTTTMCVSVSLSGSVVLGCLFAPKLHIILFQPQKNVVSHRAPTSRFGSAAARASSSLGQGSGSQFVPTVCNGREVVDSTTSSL
Source text: The compounds provided in the present invention are positive allosteric modulators of mGluR2. These compounds appear to potentiate glutamate responses by binding to an allosteric site other than the glutamate binding site. The response of mGluR2 to a concentration of glutamate is increased when compounds of Formula (I) are present. Compounds of Formula (I) are expected to have their effect substantially at mGluR2 by virtue of their ability to enhance the function of the receptor. The behaviour of positive allosteric modulators tested at mGluR2 using the [^35S]GTPγS binding assay method described below and which is suitable for the identification of such compounds, and more particularly the compounds according to Formula (I), are shown in Table 4.
The [^35S]GTPγS binding assay is a functional membrane-based assay used to study G-protein coupled receptor (GPCR) function whereby incorporation of a non-hydrolysable form of GTP, [^35S]GTPγS (guanosine 5′-triphosphate, labelled with […] ^35S), is measured. The G-protein α subunit catalyzes the exchange of guanosine 5′-diphosphate (GDP) by guanosine triphosphate (GTP) and on activation of the GPCR by an agonist, [^35S]GTPγS, becomes incorporated and cannot be cleaved to continue the exchange cycle (Harper (1998) Current Protocols in Pharmacology 2.6.1-10, John Wiley & Sons, Inc.). […] Here we describe the use of the [^35S]GTPγS binding assay using membranes from cells transfected with the human mGluR2 receptor and adapted from Schaffhauser et al ((2003) Molecular Pharmacology 4:798-810) for the detection of the positive allosteric modulation (PAM) properties of the compounds of this invention.
Cho-cells were cultured to pre-confluence and stimulated with 5 mm butyrate for 24 hours, prior to washing in PBS, and then collection by scraping in homogenisation buffer (50 mM Tris-HCl buffer, pH 7.4, 4° C.). Cell lysates were homogenized briefly (15 s) using an ultra-turrax homogenizer. The homogenate was centrifuged at 23 500×g for 10 minutes and the supernatant discarded. The pellet was resuspended in 5 mM Tris-HCl, pH 7.4 and centrifuged again (30 000×g, 20 min, 4° C.). The final pellet was resuspended in 50 mM HEPES, pH 7.4 and stored at −80° C. in appropriate aliquots before use. Protein concentration was determined by the Bradford method (Bio-Rad, USA) with bovine serum albumin as standard.
Measurement of mGluR2 positive allosteric modulatory activity of test compounds in membranes containing human mGluR2 was performed using frozen membranes that were thawed and briefly homogenised prior to pre-incubation in 96-well microplates (15 μg/assay well, 30 minutes, 30° C.) in assay buffer (50 mM HEPES pH 7.4, 100 mM NaCl, 3 mM MgCl2, 50 μM GDP, 10 μg/ml saponin,) with increasing concentrations of positive allosteric modulator (from 0.3 nM to 50 μM) and either a minimal pre-determined concentration of glutamate (PAM assay), or no added glutamate. For the PAM assay, membranes were pre-incubated with glutamate at EC25 concentration, i.e. a concentration that gives 25% of the maximal response glutamate, and is in accordance to published data (Pin et al. (1999) Eur. J. Pharmacol. 375:277˜294). After addition of [^35S]GTPγS (0.1 nM, f.c.) to achieve a total reaction volume of 200 μl, microplates were shaken briefly and further incubated to allow [^35S]GTPγS incorporation on activation (30 minutes, 30° C.). The reaction was stopped by rapid vacuum filtration over glass-fibre filter plates (Unifilter 96-well GF/B filter plates, Perkin-Elmer, Downers Grove, USA) microplate using a 96-well plate cell harvester (Filtermate, Perkin-Elmer, USA), and then by washing three times with 300 μl of ice-cold wash buffer (Na2PO4.2H20 10 mM, NaH2PO4.H20 10 mM, pH=7.4). Filters were then air-dried, and 40 μl of liquid scintillation cocktail (Microscint-O) was added to each well, and membrane-bound [^35S]GTPγS was measured in a 96-well scintillation plate reader (Top-Count, Perkin-Elmer, USA). […]

SMILES	EC50 (human mGluR2 receptor) [nM]	melting point [°C]
CCCCn1ccc(-c2ccc(Oc3ccnc(C)c3)cc2)c(Cl)c1=O [Compound 1, 1-Butyl-3-chloro-4-[4-(2-methylpyridin-4-yloxy)-phenyl]-1H-pyridin-2-one]	251	–
Cc1cc(Oc2ccc(-c3ccn(CC4CC4)c(=O)c3Cl)cc2F)cc(C)n1 [Compound 31]	288	161.6
CCCCn1ccc(-c2ccc(Oc3ccnc(C)c3C)cc2F)c(Cl)c1=O [Compound 11]	67.6	–
Cc1cc(C)nc(Oc2ccc(-c3ccn(CC4CC4)c(=O)c3Cl)c(F)c2)c1 [Compound 36]	891	–
Cc1ncccc1Oc1ccc(-c2ccn(CC3CC3)c(=O)c2Cl)cc1F [Compound 33]	617	–
CCCCn1ccc(-c2ccc(Oc3ccc(C)nc3C)cc2)c(Cl)c1=O [Compound 16]	67.6	–
Cc1cc(Oc2ccc(-c3ccn(CC4CC4)c(=O)c3Cl)cc2)ccn1 [Compound 13]	513	–
CCCCn1ccc(-c2ccc(Oc3ccc(C(C)(C)O)cc3)cc2)c(Cl)c1=O [Compound 37]	39.8	–
Cc1ncccc1Oc1ccc(-c2ccn(CC3CC3)c(=O)c2Cl)cc1Cl [Compound 23]	126	–
CCCCn1ccc(-c2ccc(Oc3cc(C)nc(C)c3)cc2F)c(Cl)c1=O [Compound 10]	200	–
CCCCn1ccc(-c2ccc(Oc3ccc(C)nc3)c(Cl)c2)c(Cl)c1=O [Compound 22]	46.8	79.7
Cc1ncccc1Oc1ccc(-c2ccn(CC3CC3)c(=O)c2Cl)c(F)c1 [Compound 34]	> 10000	120.9
Cc1cc(Oc2ccc(-c3ccn(CC4CC4)c(=O)c3C(F)(F)F)cc2F)cc(C)n1 [Compound 5, 1-Cyclopropylmethyl-4-[4-(2,6-dimethyl-pyridin-4-yloxy)-3-fluoro-phenyl]-3-trifluoromethyl-1H-pyridin-2-one]	75.9	161.8
Cc1ccc(Oc2ccc(-c3ccn(CC4CC4)c(=O)c3Cl)cc2Cl)cn1 [Compound 20]	91.2	111.8
CCCCn1ccc(-c2ccc(Oc3ccc(C)nc3C)cc2F)c(Cl)c1=O [Compound 35]	> 10000	–
Cc1cc(Oc2ccc(-c3ccn(CCC(C)C)c(=O)c3Cl)cc2)ccn1 [Compound 6]	170	–
Cc1ccc(Oc2ccc(-c3ccn(CCC(C)C)c(=O)c3Cl)cc2Cl)cn1 [Compound 21]	46.8	96.1
CCCCn1ccc(-c2ccc(Oc3ccnc(C)c3)c(F)c2)c(Cl)c1=O [Compound 8]	174	–
Cc1cc(Oc2ccc(-c3ccn(CC4CC4)c(=O)c3Cl)cc2Cl)ccn1 [Compound 17]	117	120.8

SMILES	EC50 (human mGluR2 receptor) [nM]	melting point [°C]
CCCCn1ccc(-c2ccc(Oc3cccnc3C)cc2F)c(Cl)c1=O [Compound 29]	> 10000	108.4
CCCCn1ccc(-c2ccc(Oc3ccnc(C)c3)c(Cl)c2)c(Cl)c1=O [Compound 18]	100	–
CCCCn1ccc(-c2ccc(Oc3cccnc3C)c(Cl)c2)c(Cl)c1=O [Compound 15]	60.3	–
Cc1ccc(Oc2ccc(-c3ccn(CC4CC4)c(=O)c3Cl)cc2F)c(C)n1 [Compound 3, 3-Chloro-1-cyclopropylmethyl-4-[4-(2,6-dimethylpyridin-3-yloxy)-3-fluoro-phenyl]-1H-pyridin-2-one]	182	143.4
Cc1ccc(Oc2ccc(-c3ccn(CC4CC4)c(=O)c3Cl)cc2)c(C)n1 [Compound 14]	138	151.8
Cc1ncccc1Oc1ccc(-c2ccn(CC3CC3)c(=O)c2Cl)cc1 [Compound 24]	437	126.2
CCCCn1ccc(-c2ccc(Oc3cc(C)nc(C)c3)c(F)c2)c(Cl)c1=O [Compound 9]	234	–
Cc1cc(Oc2ccc(-c3ccn(CC4CC4)c(=O)c3C(F)(F)F)cc2F)ccn1 [Compound 38]	102	203.9
Cc1cc(Oc2ccc(-c3ccn(CCC(C)C)c(=O)c3Cl)cc2Cl)ccn1 [Compound 19]	67.6	103.8
CCCCn1ccc(-c2ccc(Oc3cccnc3C)cc2)c(Cl)c1=O [Compound 25]	224	–
CCCCn1ccc(-c2ccc(Oc3ccnc(C)c3C)c(F)c2)c(Cl)c1=O [Compound 12]	129	–
CCCCn1ccc(-c2ccc(Oc3ccc(C(=O)O)cc3)cc2)c(Cl)c1=O [Compound 4, 4-[4-(1-Butyl-3-chloro-2-oxo-1,2-dihydro-pyridin-4-yl)-phenoxy]-benzoic acid]	138	280.3
Cc1cc(Oc2ccc(-c3ccn(CCC4CC4)c(=O)c3Cl)c(F)c2)ccn1 [Compound 26]	155	–
CCCCn1ccc(-c2ccc(Oc3ccnc(C)c3)cc2F)c(Cl)c1=O [Compound 2, 1-Butyl-3-chloro-4-[2-fluoro-4-(2-methylpyridin-4-yloxy)-phenyl]-1H-pyridin-2-one]	282	–
Cc1cc(Oc2ccc(-c3ccn(CC4CC4)c(=O)c3Cl)c(F)c2)ccn1 [Compound 28]	363	131.8
Cc1cc(Oc2ccc(-c3ccn(CC4CC4)c(=O)c3Cl)c(F)c2)cc(C)n1 [Compound 32]	372	148.6
Cc1cc(Oc2ccc(-c3ccn(CCC4CC4)c(=O)c3Cl)cc2)ccn1 [Compound 7]	174	–
Cc1cc(Oc2ccc(-c3ccn(CC4CC4)c(=O)c3Cl)cc2F)ccn1 [Compound 27]	355	176
CCCCn1ccc(-c2ccc(Oc3ccc(C)nc3C)c(F)c2)c(Cl)c1=O [Compound 30]	46.8	–
